Data on 10 compounds can be found in patent publication US20240425523A1, “Compounds for the Degradation of EGFR Kinase” (Beigene Switzerland GMBH, priority 2023, published 2024).

Holding throughout (type): cell-based
For assay [1], the target named is T1, EGFR L858R (BaF3-L858R cells) (Homo sapiens, UniProt P00533, L858R).
T1 construct: host or cells: BaF3
Put plainly: Cell degradation of EGFR, HTRF assay, BaF3-L858R cells. Particulars: 16 h treatment; for DC50: EGFR degradation; for Dmax: maximum percentage of degradation. The essentials: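 BaF3-L858R cells treated 16 h at 37° C, 5% CO2 with compound (top 10 uM final, 5-fold, 8 doses, 0.1% DMSO). DC50 from four-parameter fit; Dmax is maximum percent degradation.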
Background: TR-FRET usually uses a lanthanide donor and a delayed reading to cut background.

Assay [2] addresses T2, EGFR-L858R/C797S (H1975-clone #8 cells) (Homo sapiens, UniProt P00533, C797S/L858R).
T2 construct: expressed in transfected cells; host or cells: H1975 (endogenous EGFR knocked out, clone #8)
Put plainly: Cell degradation of EGFR, HTRF assay, H1975-clone#8 (L858R/C797S) cells. Particulars: 16 h treatment; for DC50: EGFR degradation; for Dmax: maximum percentage of degradation.

Assay [3] deals with T3, p-EGFR L858R (BaF3-L858R cells) (Homo sapiens, UniProt P00533, L858R).
T3 construct: host or cells: BaF3
Put plainly: Cell p-EGFR inhibition assay, HTRF, BaF3-L858R cells. Particulars: 16 h treatment; for Imax (%): maximum percentage of pEGFR inhibition; for IC50: pEGFR inhibition. The gist of the method: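 BaF3-L858R cells treated 16 h at 37 °C, 5% CO2 with compound from 10 uM top, 5-fold dilutions, 8 doses, in 0.1% DMSO medium. Lysates read overnight by HTRF p-EGFR antibodies; IC50 fitted to four-parameter curve against DMSO high control.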

In assay [4] the target is p-EGFR Del19/C797S (H1975-clone #23 cells) (Homo sapiens, UniProt P00533). Nature of the assay: Cell p-EGFR inhibition assay, HTRF, H1975-clone#23 (DEL19/C797S) cells. To be noted: 16 h treatment; for Imax (%): maximum percentage of pEGFR inhibition; for IC50: pEGFR inhibition. The gist of the method: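 Phospho-EGFR read by overnight HTRF on lysates, normalized to DMSO-treated high control; IC50, Hill slope and Imax fitted. Compounds were applied for 16 h (10 uM top, 5-fold steps, 8 doses) to an H1975 single clone carrying only exogenous Del19/C797S EGFR after sgRNA knockout of endogenous copies.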

SMILES strings stand for the structures.

On to `Cc1cc2cc(n1)-c1cnn(C)c1OC[C@H]1CC[C@H](C1)CN1/C(=N/C2=O)Nc2ccc(N3CCN(C4CCN(c5ccc(OC6CCC(=O)NC6=O)nc5C)CC4)CC3)cc21` (some centres unmarked) [Example 137, 3-((5-(4-(4-((7^1R,7^3S,E)-1^1,2^6-dimethyl-3-oxo-5^2,5^3-dihydro-1^1H,5^1H-9-oxa-4-aza-5(2,1)-benzo[d]imidazola-2(2,4)-pyridina-1(4,5)-pyrazola-7(1,3)-cyclopentanacyclononaphane-5^6-yl)piperazin-1-yl)piperidin-1-yl)-6-methylpyridin-2-yl)oxy)piperidine-2,6-dione], for which, in assay [1], half-maximal degradation (DC50) was put at 2.37 nM and the maximal degradation (Dmax) (commonly the greatest extent of degradation seen) was 83.3%. Further, in assay [2], it took 3.35 nM to reach half-maximal degradation (DC50) and the Dmax turned out to be 78.2%. In assay [3], the “Imax (%)” value turned out to be 96.47% and half-maximal inhibition (IC50) was put at 14.6 nM. Moreover, in assay [4], the “Imax (%)” value was 98.8% and the IC50 (commonly the concentration needed to halve the response being measured) is 0.528 nM.

With `Cc1cc2cc(n1)-c1c(C)nn(C)c1OC[C@H]1CC[C@H](C1)CN1/C(=N/C2=O)Nc2ccc(N3CC(N(C)C4CCN(c5cc(F)c([C@H]6CCC(=O)NC6=O)c(F)c5)CC4)C3)cc21` [Example 153, (R)-3-(2,6-difluoro-4-(4-(methyl(1-((7^1R,7^3S,E)-1^1,1^3,2^6-trimethyl-3-oxo-5^2,5^3-dihydro-1^1H,5^1H-9-oxa-4-aza-5(2,1)-benzo[d]imidazola-2(2,4)-pyridina-1(4,5)-pyrazola-7(1,3)-cyclopentanacyclononaphane-5^6-yl)azetidin-3-yl)amino)piperidin-1-yl)phenyl)piperidine-2,6-dione], in assay [1], the DC50 – broadly, the concentration at which degradation of the target reaches its halfway point – stood at 2.8 nM and the Dmax came out at 84.4%. In assay [2], this compound gave a DC50 of 2.92 nM and a Dmax of 87%. Besides, in assay [3], the “Imax (%)” value amounted to 97.42% and the IC50 stood at 11.1 nM. In addition, in assay [4], the “Imax (%)” value is on record as 100.23% and the IC50 was found to be 1.56 nM.

In assay [1], `Cc1cc2cc(n1)-c1c(C)nn(C)c1OC[C@H]1CCC(C1)CN1/C(=N/C2=O)Nc2ccc(N3CCN([C@@H]4CCN(c5ccc(C6CCC(=O)NC6=O)nc5C)C[C@@H]4F)CC3)cc21` (stereo partly drawn) [Example 79, 3-(5-((3S,4R)-3-fluoro-4-(4-((7^1R,7^3S,E)-1^1,1^3,2^6-trimethyl-3-oxo-5^2,5^3-dihydro-1^1H,5^1H-9-oxa-4-aza-5(2,1)-benzo[d]imidazola-2(2,4)-pyridina-1(4,5)-pyrazola-7(1,3)-cyclopentanacyclononaphane-5^6-yl)piperazin-1-yl)piperidin-1-yl)-6-methylpyridin-2-yl)piperidine-2,6-dione] gave a DC50 of 0.41 nM and a Dmax of 92.6%. In assay [2], this compound gave a DC50 of 0.48 nM and a Dmax of 91.7%. Moreover, in assay [3], the “Imax (%)” value is reported as 92.7% and the midpoint of inhibition, the IC50, lay at 1.1 nM. In assay [4], the “Imax (%)” value was found to be 101.4% and the IC50 is 0.3 nM.

`COc1cc2c(cc1N1CCN(C3CCN(c4cc(F)c([C@H]5CCC(=O)NC5=O)c(F)c4)CC3)CC1)N1C[C@@H]3CC[C@H](COc4c(c(C)nn4C)-c4cc(cc(C)n4)C(=O)/N=C/1N2)C3` [Example 152, (R)-3-(2,6-difluoro-4-(4-(4-((7^1R,7^3S,E)-5^5-methoxy-1^1,1^3,2^6-trimethyl-3-oxo-5^2,5^3-dihydro-1^1H,5^1H-9-oxa-4-aza-5(2,1)-benzo[d]imidazola-2(2,4)-pyridina-1(4,5)-pyrazola-7(1,3)-cyclopentanacyclononaphane-5^6-yl)piperazin-1-yl)piperidin-1-yl)phenyl)piperidine-2,6-dione]: in assay [1], the DC50 amounted to 1.19 nM and the Dmax came out at 86.6%. Further, in assay [2], the DC50 was 1.28 nM and the Dmax is 88.7%. Moreover, in assay [3], the “Imax (%)” value worked out at 95.61% and the IC50 turned out to be 15 nM. In assay [4], the “Imax (%)” value came out at 100.06% and 2.46 nM corresponded to half-maximal inhibition (IC50).

In assay [1], `Cc1cc2cc(n1)-c1c(C)nn(C)c1OC[C@H]1CC[C@H](C1)CN1/C(=N/C2=O)Nc2ccc(N3CCN(CC4CCN(c5cc(F)c([C@H]6CCC(=O)NC6=O)c(F)c5)CC4)CC3)cc21` [Example 182, (R)-3-(2,6-difluoro-4-(4-((4-((7^1R,7^3S,E)-1^1,1^3,2^6-trimethyl-3-oxo-5^2,5^3-dihydro-1^1H,5^1H-9-oxa-4-aza-5(2,1)-benzo[d]imidazola-2(2,4)-pyridina-1(4,5)-pyrazola-7(1,3)-cyclopentanacyclononaphane-5^6-yl)piperazin-1-yl)methyl)piperidin-1-yl)phenyl)piperidine-2,6-dione] yielded a DC50 of 21.8 nM and a Dmax of 89.2%. Moreover, in assay [2], it took 1.39 nM to reach half-maximal degradation (DC50) and the Dmax turned out to be 79.8%. Also, in assay [3], the “Imax (%)” value was determined as 100.38% and half-maximal inhibition (IC50) required 2.21 nM. For the same compound, in assay [4], the “Imax (%)” value is 99.73% and half-maximal inhibition (IC50) required 2.38 nM.

Regarding `Cc1cc2cc(n1)-c1cnn(C)c1OC[C@H]1CCC(C1)CN1/C(=N/C2=O)Nc2ccc(N3CCN([C@H]4CCN(c5cc(F)c([C@H]6CCC(=O)NC6=O)c(F)c5)C[C@H]4F)CC3)cc21` (single isomer, unassigned) [Example 84], in assay [1], it took 4.01 nM to reach half-maximal degradation (DC50) and the Dmax was 79.7%. In assay [2], this compound gave a DC50 of 2.1 nM and a Dmax of 64.7%. In assay [3], the “Imax (%)” value is listed as 109.3% and the concentration for half-maximal inhibition (IC50) is 6 nM. Further, in assay [4], the “Imax (%)” value is reported as 100.5% and 0.5 nM corresponded to half-maximal inhibition (IC50).

For `COC[C@@H]1CN(c2ccc3c(c2)N2CC4CC[C@H](COc5c(cnn5C)-c5cc(cc(C)n5)C(=O)/N=C/2N3)C4)CCN1C1CCN(c2cc(F)c(C3CCC(=O)NC3=O)nc2C)CC1` (stereo partly drawn) [Example 70, 3-(5-(4-((S)-4-((7^1R,7^3S,E)-1^1,2^6-dimethyl-3-oxo-5^2,5^3-dihydro-1^1H,5^1H-9-oxa-4-aza-5(2,1)-benzo[d]imidazola-2(2,4)-pyridina-1(4,5)-pyrazola-7(1,3)-cyclopentanacyclononaphane-5^6-yl)-2-(methoxymethyl)piperazin-1-yl)piperidin-1-yl)-3-fluoro-6-methylpyridin-2-yl)piperidine-2,6-dione], in assay [1], the DC50 turned out to be 3.78 nM and the Dmax turned out to be 87.7%. In addition, in assay [2], the DC50 was 4.11 nM and the maximal degradation (Dmax) was determined as 73.5%. Besides, in assay [3], the “Imax (%)” value is on record as 102.1% and it took 11 nM to reach half-maximal inhibition (IC50). Also, in assay [4], the “Imax (%)” value came out at 99.2% and the IC50 was determined as 1.4 nM.

For `Cc1cc2cc(n1)-c1cnn(C)c1OC[C@H]1CCC(C1)CN1/C(=N/C2=O)Nc2ccc(N3CCN(C4CCN(c5cc(F)c([C@H]6CCC(=O)NC6=O)c(F)c5)CC4)C[C@@H]3CO)cc21` [Example 94, (R)-3-(4-(4-((R)-4-((7^1R,7^3S,E)-1^1,2^6-dimethyl-3-oxo-5^2,5^3-dihydro-1^1H,5^1H-9-oxa-4-aza-5(2,1)-benzo[d]imidazola-2(2,4)-pyridina-1(4,5)-pyrazola-7(1,3)-cyclopentanacyclononaphane-5^6-yl)-3-(hydroxymethyl)piperazin-1-yl)piperidin-1-yl)-2,6-difluorophenyl)piperidine-2,6-dione], in assay [1], the DC50 turned out to be 3.37 nM and the Dmax stood at 71.6%. Further, in assay [2], half-maximal degradation (DC50) was put at 0.83 nM and the Dmax came to 73.9%. In addition, in assay [3], the “Imax (%)” value was 99.6% and it took 6.1 nM to reach half-maximal inhibition (IC50). For the same compound, in assay [4], the “Imax (%)” value was 101.2% and the IC50 stood at 0.8 nM.

In assay [1], `Cc1cc2cc(n1)-c1cnn(C)c1OC[C@H]1CCC(C1)CN1/C(=N/C2=O)Nc2ccc(N3CCC(CN4CCC(Nc5cc(F)c([C@H]6CCC(=O)NC6=O)c(F)c5)CC4)CC3)cc21` [Example 131, (R)-3-(4-((1-((1-((7^1R,7^3S,E)-1^1,2^6-dimethyl-3-oxo-5^2,5^3-dihydro-1^1H,5^1H-9-oxa-4-aza-5(2,1)-benzo[d]imidazola-2(2,4)-pyridina-1(4,5)-pyrazola-7(1,3)-cyclopentanacyclononaphane-5^6-yl)piperidin-4-yl)methyl)piperidin-4-yl)amino)-2,6-difluorophenyl)piperidine-2,6-dione] showed a DC50 of 4.84 nM and a Dmax of 69.1%. Further, in assay [2], it took 0.867 nM to reach half-maximal degradation (DC50) and the Dmax came out at 72%. For the same compound, in assay [3], the “Imax (%)” value stood at 102.8% and the midpoint of inhibition, the IC50, lay at 6.4 nM. Also, in assay [4], the “Imax (%)” value turned out to be 103.08% and the IC50 came to 0.796 nM.

As to `COC[C@H]1CN(c2ccc3c(c2)N2CC4CC[C@H](COc5c(c(C)nn5C)-c5cc(cc(C)n5)C(=O)/N=C/2N3)C4)CCN1C1CCN(c2cc(F)c([C@H]3CCC(=O)NC3=O)c(F)c2)CC1` [Example 91, (R)-3-(2,6-difluoro-4-(4-((R)-2-(methoxymethyl)-4-((7R,7^3S,E)-1^1,1^3,2^6-trimethyl-3-oxo-5^2,5^3-dihydro-1^1H,5^1H-9-oxa-4-aza-5(2,1)-benzo[d]imidazola-2(2,4)-pyridina-1(4,5)-pyrazola-7(1,3)-cyclopentanacyclononaphane-5^6-yl)piperazin-1-yl)piperidin-1-yl)phenyl)piperidine-2,6-dione], in assay [1], the DC50 was 2.04 nM and the Dmax is 81.5%. Moreover, in assay [2], half-maximal degradation (DC50) was put at 2.28 nM and the Dmax is 88.7%. In assay [3], the “Imax (%)” value is recorded as 97.1% and 3.5 nM corresponded to half-maximal inhibition (IC50). For the same compound, in assay [4], the “Imax (%)” value came out at 100.8% and the IC50 worked out at 2.2 nM.
